Laboratory results taken from patent EP4603105A1, “PHARMACEUTICAL COMPOSITION CONTAINING CYCLIC COMPOUND HAVING SELECTIVE KRAS INHIBITORY EFFECT AGAINST HRAS AND NRAS” (CHUGAI SEIYAKU KABUSHIKI KAISHA, priority 2022, dated 2024).

Columns and labels:
[1] = target: GDP-bound NRAS wild-type protein (Homo sapiens, UniProt P01111); experiment: Binding to NRAS by surface plasmon resonance (SPR), KD and KD ratio to KRAS; conditions: ratio of KD value for GDP-bound NRAS wild-type protein to KD value for KRAS (SPR)
How it was run: (§1)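 Compound binding is evaluated by SPR single-cycle kinetics, with concentrations added intermittently from low to high for 75 s each. Target surfaces carry GDP-loaded biotinylated Avi-RAS at about 100–300 RU, regenerated after each cycle; temperature 30°C. A 1:1 binding model gives KD.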

[2] = system: human lung cancer strain NCI-H441; assay type: cell-based
How it was run: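 Proliferation was scored by […] measured after the reagent was added to cultures kept at 37°C in 5% carbon dioxide.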

HRAS wild-type protein = HRAS wild-type protein (Homo sapiens, UniProt P01112); experiment: Binding to HRAS by surface plasmon resonance (SPR), KD and KD ratio to KRAS; conditions: ratio of KD value for HRAS wild-type protein to KD value for KRAS (SPR)
How it was run: as §1

Chain of GDP-bound NRAS wild-type protein (P01111 whole entry): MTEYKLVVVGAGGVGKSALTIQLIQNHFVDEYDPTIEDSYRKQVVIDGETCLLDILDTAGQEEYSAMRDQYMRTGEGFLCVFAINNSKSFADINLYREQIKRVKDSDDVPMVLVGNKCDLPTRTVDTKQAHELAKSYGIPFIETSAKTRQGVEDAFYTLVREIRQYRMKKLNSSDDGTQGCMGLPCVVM
Chain of HRAS wild-type protein (P01112 whole entry): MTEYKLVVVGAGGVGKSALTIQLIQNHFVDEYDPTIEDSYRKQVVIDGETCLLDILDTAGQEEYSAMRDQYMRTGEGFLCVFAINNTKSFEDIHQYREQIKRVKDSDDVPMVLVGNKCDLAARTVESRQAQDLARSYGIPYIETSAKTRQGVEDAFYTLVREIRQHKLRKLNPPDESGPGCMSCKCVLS

SMILES | NRAS /KRAS [1] | IC50 [2] | HRAS /KRAS (HRAS wild-type protein)
CCO[C@@H]1C[C@H]2C(=O)NC3(CCC3)C(=O)N(C)[C@@H](C3CCCC3)C(=O)N(C)[C@H](C(=O)N(C)CC)CC(=O)N(C)[C@@H](CC)C(=O)N[C@@H]([C@@H](C)CC)C(=O)N(C)CC(=O)N(C)[C@H]3C/C=C\CCN(C3=O)[C@@H](CC3CCC(F)(F)CC3)C(=O)N(C)CC(=O)N[C@@H](CCc3cc(F)c(C(F)(F)F)c(F)c3)C(=O)N2C1 [PP1553] | A (a compound having 10 or more and less than 20 is denoted as A) | 12.1 nM | A (a compound having 10 or more and less than 20 is denoted as A)
CCO[C@@H]1C[C@H]2C(=O)NC3(CC(C)(C)C3)C(=O)N(C)[C@@H](C3CCCC3)C(=O)N(C)[C@H](C(=O)N(C)C)CC(=O)N(C)[C@@H](CC)C(=O)N[C@@H]([C@@H](C)CC)C(=O)N(C)CC(=O)N(C)[C@H]3C/C=C\CCN(C3=O)[C@@H](Cc3ccc(C(F)(F)F)cc3)C(=O)N(C)CC(=O)N[C@@H](CCc3ccc(C(F)(F)F)c(OC)c3)C(=O)N2C1 [PP1559] | A (a compound having 10 or more and less than 20 is denoted as A) | 1.8 nM | A (a compound having 10 or more and less than 20 is denoted as A)
CCC[C@H]1C(=O)N[C@@H]([C@@H](C)CC)C(=O)N(C)CC(=O)N(C)[C@H]2C/C=C\CCN(C2=O)[C@@H](Cc2ccc(C(F)(F)F)cc2)C(=O)N(C)CC(=O)N[C@@H](CCc2ccc(C(F)(F)F)c(OC)c2)C(=O)N2C[C@H](OCC)C[C@H]2C(=O)NC2(CC(C)(C)C2)C(=O)N(C)[C@@H](C2CCCC2)C(=O)N(C)[C@H](C(=O)N(C)C)CC(=O)N1C [PP1560] | A (a compound having 10 or more and less than 20 is denoted as A) | 1.8 nM | B (a compound having 3 or more and less than 10 is denoted as B)
CCO[C@@H]1C[C@H]2C(=O)NC3(CC(C)(C)C3)C(=O)N(C)[C@@H](C3CCCC3)C(=O)N(C)[C@H](C(=O)N(C)C)CC(=O)N(C)[C@@H](CC3CC3)C(=O)N[C@@H]([C@@H](C)CC)C(=O)N(C)CC(=O)N(C)[C@H]3C/C=C\CCN(C3=O)[C@@H](Cc3ccc(C(F)(F)F)cc3)C(=O)N(C)CC(=O)N[C@@H](CCc3ccc(C(F)(F)F)c(OC)c3)C(=O)N2C1 [PP1563] | A (a compound having 10 or more and less than 20 is denoted as A) | 2.6 nM | A (a compound having 10 or more and less than 20 is denoted as A)
CCO[C@@H]1C[C@H]2C(=O)NC3(CC(C)(C)C3)C(=O)N(C)[C@@H](C3CCCC3)C(=O)N(C)[C@H](C(=O)N(C)C)CC(=O)N(C)[C@@H](CC3CC3)C(=O)N[C@@H]([C@@H](C)CC)C(=O)N(C)CC(=O)N(C)[C@H]3C/C=C\CCN(C3=O)[C@@H](Cc3ccc(C(F)(F)F)cc3)C(=O)N(C)CC(=O)N[C@@H](CCc3cc(F)c(C(F)(F)F)c(F)c3)C(=O)N2C1 [PP1568] | A (a compound having 10 or more and less than 20 is denoted as A) | 2.2 nM | A (a compound having 10 or more and less than 20 is denoted as A)
CCCOC[C@H]1C(=O)N[C@@H]([C@@H](C)CC)C(=O)N(C)CC(=O)N(C)[C@H]2C/C=C\CCN(C2=O)[C@@H](Cc2ccc(C(F)(F)F)cc2)C(=O)N(C)CC(=O)N[C@@H](CCc2cc(F)c(C(F)(F)F)c(F)c2)C(=O)N2C[C@H](OCC)C[C@H]2C(=O)NC2(CCC2)C(=O)N(C)[C@@H](C2CCCC2)C(=O)N(C)[C@H](C(=O)N(C)CC)CC(=O)N1C [PP1569] | A (a compound having 10 or more and less than 20 is denoted as A) | 2.8 nM | B (a compound having 3 or more and less than 10 is denoted as B)
CC[C@H](C)[C@@H]1NC(=O)[C@H](CC2CC2)N(C)C(=O)C[C@@H](C(=O)N(C)CC)N(C)C(=O)[C@H](C2CCCC2)N(C)C(=O)C2(CC(C)(C)C2)NC(=O)[C@@H]2C[C@@H](F)CN2C(=O)[C@H](CCc2cc(F)c(C(F)(F)F)c(F)c2)NC(=O)CN(C)C(=O)[C@H](Cc2ccc(C(F)(F)F)cc2)N2CC/C=C\C[C@@H](C2=O)N(C)C(=O)CN(C)C1=O [PP1570] | AA (a compound having 20 or more is denoted as AA) | 2.6 nM | A (a compound having 10 or more and less than 20 is denoted as A)
CC[C@H](C)[C@@H]1NC(=O)[C@H](CC2CC2)N(C)C(=O)C[C@@H](C(=O)N(CC)CC)N(C)C(=O)[C@H](C2CCCC2)N(C)C(=O)C2(CC(C)(C)C2)NC(=O)[C@@H]2C[C@@H](F)CN2C(=O)[C@H](CCc2cc(F)c(C(F)(F)F)c(F)c2)NC(=O)CN(C)C(=O)[C@H](Cc2ccc(C(F)(F)F)cc2)N2CC/C=C\C[C@@H](C2=O)N(C)C(=O)CN(C)C1=O [PP1571] | A (a compound having 10 or more and less than 20 is denoted as A) | 6.8 nM | A (a compound having 10 or more and less than 20 is denoted as A)
CCCOC[C@H]1C(=O)N[C@@H]([C@@H](C)CC)C(=O)N(C)CC(=O)N(C)[C@H]2C/C=C\CCN(C2=O)[C@@H](Cc2ccc(C(F)(F)F)cc2)C(=O)N(C)CC(=O)N[C@@H](CCc2cc(F)c(C(F)(F)F)c(F)c2)C(=O)N2C[C@H](OCC)C[C@H]2C(=O)NC2(CC(C)(C)C2)C(=O)N(C)[C@@H](C2CCCC2)C(=O)N(C)[C@H](C(=O)N(C)CC)CC(=O)N1C [PP1572] | A (a compound having 10 or more and less than 20 is denoted as A) | 3.6 nM | A (a compound having 10 or more and less than 20 is denoted as A)
CCO[C@@H]1C[C@H]2C(=O)NC3(CCCC3)C(=O)N(C)[C@@H](C3CCCC3)C(=O)N(C)[C@H](C(=O)N(C)CC)CC(=O)N(C)[C@@H](CC(C)C)C(=O)N[C@@H]([C@@H](C)CC)C(=O)N(C)CC(=O)N(C)[C@H]3C/C=C\CCN(C3=O)[C@@H](Cc3ccc(C(F)(F)F)cc3)C(=O)N(C)CC(=O)N[C@@H](CCc3cc(F)c(C(F)(F)F)c(F)c3)C(=O)N2C1 [PP1574] | A (a compound having 10 or more and less than 20 is denoted as A) | 6.5 nM | A (a compound having 10 or more and less than 20 is denoted as A)
CCCOC[C@H]1C(=O)N[C@@H]([C@@H](C)CC)C(=O)N(C)CC(=O)N(C)[C@H]2C/C=C\CCN(C2=O)[C@@H](Cc2ccc(C(F)(F)F)cc2)C(=O)N(C)CC(=O)N[C@@H](CCc2cc(F)c(C(F)(F)F)c(F)c2)C(=O)N2C[C@H](OCC)C[C@H]2C(=O)NC2(CC(C)(C)C2)C(=O)N(C)[C@@H](C2CCCC2)C(=O)N(C)[C@H](C(=O)N(CC)CC)CC(=O)N1C [PP1575] | B (a compound having 3 or more and less than 10 is denoted as B) | 11.1 nM | B (a compound having 3 or more and less than 10 is denoted as B)
CCO[C@@H]1C[C@H]2C(=O)NC3(CC(C)(C)C3)C(=O)N(C)[C@@H](C3CCCC3)C(=O)N(C)[C@H](C(=O)N(C)CC)CC(=O)N(C)[C@@H](CC)C(=O)N[C@@H]([C@@H](C)CC)C(=O)N(C)CC(=O)N(C)[C@H]3C/C=C\CCN(C3=O)[C@@H](Cc3ccc(C(F)(F)F)cc3)C(=O)N(C)CC(=O)N[C@@H](CCc3cc(F)c(C(F)(F)F)c(F)c3)C(=O)N2C1 [PP1579] | A (a compound having 10 or more and less than 20 is denoted as A) | 4.1 nM | B (a compound having 3 or more and less than 10 is denoted as B)
CCO[C@@H]1C[C@H]2C(=O)NC3(CCC3)C(=O)N(C)[C@@H](C3CCCC3)C(=O)N(C)[C@H](C3CCCCC3)CC(=O)N(C)[C@@H](COC)C(=O)N[C@@H]([C@@H](C)CC)C(=O)N(C)CC(=O)N(C)[C@H]3C/C=C\CCN(C3=O)[C@@H](Cc3ccc(C(F)(F)F)cc3)C(=O)N(C)CC(=O)N[C@@H](CCc3cc(F)c(C(F)(F)F)c(F)c3)C(=O)N2C1 [PP1584] | B (a compound having 3 or more and less than 10 is denoted as B) | 66.4 nM | B (a compound having 3 or more and less than 10 is denoted as B)
CCO[C@@H]1C[C@H]2C(=O)NC3(CC(F)(F)C3)C(=O)N(C)[C@@H](C3CCCC3)C(=O)N(C)C(C3CCCCC3)CC(=O)N(C)[C@@H](COC)C(=O)N[C@@H]([C@@H](C)CC)C(=O)N(C)CC(=O)N(C)[C@H]3C/C=C\CCN(C3=O)[C@@H](Cc3ccc(C(F)(F)F)cc3)C(=O)N(C)CC(=O)N[C@@H](CCc3cc(F)c(C(F)(F)F)c(F)c3)C(=O)N2C1 (stereo partly drawn) [PP1586] | A (a compound having 10 or more and less than 20 is denoted as A) | 85.5 nM | A (a compound having 10 or more and less than 20 is denoted as A)
CCO[C@@H]1C[C@H]2C(=O)NC3(CCC3)C(=O)N(C)[C@@H](C(CC)CC)C(=O)N(C)C(C(C)C)CC(=O)N(C)[C@@H](CC)C(=O)N[C@@H]([C@@H](C)CC)C(=O)N(C)CC(=O)N(C)[C@H]3C/C=C\CCN(C3=O)[C@@H](Cc3ccc(C(F)(F)F)cc3)C(=O)N(C)CC(=O)N[C@@H](CCc3cc(F)c(C(F)(F)F)c(F)c3)C(=O)N2C1 (stereo partly drawn) [PP1589] | A (a compound having 10 or more and less than 20 is denoted as A) | 86.6 nM | A (a compound having 10 or more and less than 20 is denoted as A)
